The values that follow come from patent US4104389A, “Antiallergic pyrido[2,1-b]quinazolin-ones” (Warner-Lambert Company, priority 1977, dated 1978).

Like-named read-outs stand apart in the source and are kept apart here.

For assay [1], the system named is antibody-antigen reactions (PCA). The assay can be described thus: PCA (rat), procedure of Herzig; reduction of allergic responses to antigen challenge. The format is in vivo. The procedure: When tested in accordance with the procedure of Herzig [Immunopharmacology, M. E. Rosenthale and H. C. Mansmann, Eds., John Wiley and Son, N.Y., 1975], these compounds as shown in Table I may be administered orally, parenterally, or by aerosol at a dose of 0.005-20mg/kg. Compounds of this invention are useful in the management of allergic reactions such as bronchial asthma.

The conditions of assay [2]: Netherlands Pat. No. 6,414,717; cited from earlier work.
Where [3] appears, read: rat, iv., read-out: ED50 - PCA (rat) iv.

As for `O=C(O)c1ccc2nc3ccccc3c(=O)n2c1` [Example 1, 11-oxo-11H-pyrido[2,1-b]quinazoline-8-carboxylic acid], in assay [1] (intravenously), the “activity when given intravenously” value is listed as “active”. Also, the “activity when given orally” value in assay [1] (orally) is on record as “active”. The ED50 (in general, the midpoint of the dose-response relation) worked out at 2 mg/kg in assay [1] (rat, ip., read-out: ED50 - PCA (rat) ip.); 0.2 mg/kg in assay [1] (setting [3]); 2 mg/kg in assay [1] (rat, po., read-out: ED50 - PCA (rat) po.).

Take `O=C(O)c1cccn2c(=O)c3ccccc3nc12` [Example 799]: in assay [1] (comparison in words, Table I), the “activity compared with isomers of the invention” value was “less active”. Besides, the “PCA (rat) inhibition, ip.” value in assay [1] (rat, ip., 10mg/kg) was 21%. Moreover, the “PCA (rat) activity, po., in words” value in assay [1] (rat, po., 10mg/kg) is “inactive”. The anti-inflammatory action result in assay [2] is on record as “possesses anti-inflammatory action”.

Turning to `O=C(O)c1cc(=O)c2c(OCC(O)COc3cccc4oc(C(=O)O)cc(=O)c34)cccc2o1` [Intal], the “ED50 - PCA (rat) ip., in words” value in assay [1] (rat, ip., dose not given) is “inact”. Moreover, in assay [1] (setting [3]), the ED50 lay within 1 to 2 mg/kg. Further, the “ED50 - PCA (rat) po., in words” value in assay [1] (rat, po., dose not given) is “inactive”.
